The NIST ThermoML archive (doi:10.1021/je800110r)
± gives the expanded uncertainty stated by the source.

Conditions: 333.15 K, Liquid, Vibrating tube method

CCCCCCCCCC [decane]
Conditions	mass density [kg/m3]
2529 kPa	701.6 ± 2
2556 kPa	701.6 ± 2
2594 kPa	701.7 ± 2
2623 kPa	701.7 ± 2
2666 kPa	701.7 ± 2
2701 kPa	701.7 ± 2
2737 kPa	701.7 ± 2
2769 kPa	701.8 ± 2
2837 kPa	701.9 ± 2
3106 kPa	702.2 ± 2
3141 kPa	702.3 ± 2
3150 kPa	702.3 ± 2
3174 kPa	702.3 ± 2
3195 kPa	702.3 ± 2
3232 kPa	702.3 ± 2
3264 kPa	702.3 ± 2
3283 kPa	702.4 ± 2
3311 kPa	702.4 ± 2
3335 kPa	702.4 ± 2
3368 kPa	702.4 ± 2
3387 kPa	702.5 ± 2
3414 kPa	702.4 ± 2
3444 kPa	702.5 ± 2
3468 kPa	702.5 ± 2
3500 kPa	702.6 ± 2
3528 kPa	702.6 ± 2
3556 kPa	702.7 ± 2
3593 kPa	702.6 ± 2
3622 kPa	702.7 ± 2
3651 kPa	702.7 ± 2
3678 kPa	702.8 ± 2
3717 kPa	702.7 ± 2
3736 kPa	702.8 ± 2
3769 kPa	702.8 ± 2
3790 kPa	702.8 ± 2
3823 kPa	702.8 ± 2
3870 kPa	703 ± 2
3903 kPa	703 ± 2
3934 kPa	703 ± 2
3970 kPa	703 ± 2
3998 kPa	703.2 ± 2
4018 kPa	703.1 ± 2
4043 kPa	703.1 ± 2
4068 kPa	703.1 ± 2
4097 kPa	703.1 ± 2
4127 kPa	703.1 ± 2
4159 kPa	703.3 ± 2
4185 kPa	703.1 ± 2
4204 kPa	703.1 ± 2
4227 kPa	703.2 ± 2
4258 kPa	703.3 ± 2
4277 kPa	703.4 ± 2
4305 kPa	703.4 ± 2
4337 kPa	703.5 ± 2
4365 kPa	703.4 ± 2
4394 kPa	703.5 ± 2
4422 kPa	703.5 ± 2
4448 kPa	703.5 ± 2
4474 kPa	703.6 ± 2
4505 kPa	703.5 ± 2
4527 kPa	703.6 ± 2
4547 kPa	703.5 ± 2
4580 kPa	703.6 ± 2
4599 kPa	703.6 ± 2
4631 kPa	703.7 ± 2
4657 kPa	703.7 ± 2
4686 kPa	703.7 ± 2
4710 kPa	703.6 ± 2
